{"source": "patent US6762173B2", "about": "(priority 1997, dated 2004)", "key": {"Phytophthora infestans [1]": {"test_system": "Phytophthora infestans", "format": "in vivo", "settings": "potato Bintje, FIG. 4"}, "Uncinula necator [2]": {"test_system": "Uncinula necator", "experiment": "In vivo greenhouse test against powdery mildew of grapevine, read 22 days after contamination (Example 11)", "settings": "FIG. 8", "description": "(§1) In Vivo Greenhouse Test of a Composition Comprising Compound (I) and Compound (IIF) (Spiroxamine) Against Powdery Mildew of Grapevine (Uncinula necator):\nExample 10 is repeated, setting the compound (I)/spiroxamine ratio to 0.11:0.33 and 1 and observing the results 22 days after contamination."}, "Alternaria brassicae": {"test_system": "Alternaria brassicae", "experiment": "In vivo greenhouse test against Alternaria rot in radish (Example 9)", "settings": "radish Pernot plantules, contamination 24 hours after treatment, FIG. 6", "method": "In Vivo Greenhouse Test of a Composition Comprising Compound (I) and Compound (IIC) (Cyprodinil) Against Alternaria Rot in Radish (Alternaria brassicae):\n(§2) A 70% dispersible granule of compound (I) and a 75% dispersible granule of cyprodinil are used.\n(§3) Dilute suspensions corresponding to a spraying volume of 1000 l of spraying liquid per ha are prepared from these compositions by dilution with water.\nThese 2 liquids are mixed together so as to obtain a compound (I)/cyprodinil ratio equal to 0.2−0.5−1.\nRadish plantules (Pernot variety) are cultivated in pots. When these plantules have reached the 2-leaf cotyledon stage, they are treated by spraying with a liquid comprising compounds (I) and (IIC), either individually or as a mixture in the ratios indicated above.\n24 hours after treatment, contamination is carried out by spraying with an aqueous suspension of spores (containing 40,000 sp/cm^3) of Alternaria brassicae.\nAfter this contamination, the treated and contaminated plantules are placed for 10 days at about 20° C. in an atmosphere of saturated humidity. […]\nFor this, the percentage of attack of the cotyledon leaves by the fungus is assessed visually, the said attack being recognizable by brown necrosis marks. From the degree of attack thus obtained (expressed in %), the efficacy is calculated according to the Abbott formula with reference to the degree of attack of the control. […]"}, "Phytophthora infestans [3]": {"test_system": "Phytophthora infestans", "format": "in vivo", "settings": "potato Bintje lamellae, preventive 4 days, FIG. 3"}, "Uncinula necator [4]": {"test_system": "Uncinula necator", "experiment": "In vivo greenhouse test against powdery mildew of grapevine (Example 10)", "settings": "FIG. 7", "method": "as §1\nA suspension of 60 mg comprising compound (I) in a liquid mixture consisting of 0.3 ml of a surfactant (oleate of polyoxyethylenated derivative of sorbitan) diluted to 10% in water and 60 ml of water is prepared.\nAn emulsifiable concentrate containing 500 g/l of spiroxamine is used.\nDilute suspensions corresponding to a spraying volume of 250 l of spraying liquid per ha are prepared from these compositions by dilution with water.\nThese 2 liquids are mixed together so as to obtain a compound (I)/spiroxamine ratio equal to 0.33:1:3.\nGrapevine plants (Chardonnay variety) are cultivated in pots. When these plants are 2 months old, they are treated by spraying with a liquid comprising one of the compounds (I) and (IIF), either individually or as a mixture in one of the ratios indicated above.\nAfter 24 hours, the grapevine leaves are contaminated by dusting them with powdery mildew spores (Uncinula necator) obtained from naturally contaminated leaves.\nAfter this contamination, the treated and contaminated grapevine plants are placed for 15 days at 20° C. at a relative humidity of about 70%. […]\n(§4) The efficacy of the treatment (expressed in %) is calculated according to the so-called Abbott formula. […]"}, "Botrytis cinerea": {"test_system": "Botrytis cinerea", "experiment": "In vivo greenhouse test against grey rot of grapevine (Example 8)", "settings": "FIG. 5", "method": "In Vivo Greenhouse Test of a Composition Comprising Compound (I) and Compound (IIC) (Cyprodinil) Against Grey Rot of Grapevine (Botrytis cinerea):\nas §2, §3\nThese 2 liquids are mixed together so as to obtain a compound (I)/cyprodinil ratio equal to 0.2.\nGrapevine plants (Chardonnay variety) are cultivated in pots. When these plants are 2 months old, they are treated by spraying with a liquid comprising one of the compounds (I) and (IIC), either individually or as a mixture in the ratio indicated above.\nAfter 24 hours, leaves are cut off the treated plants, placed on moistened filter paper in a Petri dish and are contaminated by applying 10 drops of an aqueous suspension of spores (containing 150,000 sp/cm^3) of Botrytis cinerea. […]\nFor this, the number of drops of Botrytis cinerea suspension from which a grey mark, corresponding to attack by the phytopathogenic fungus, developed is counted for a grapevine leaf. […]\nas §4"}, "Plasmopara viticola [5]": {"test_system": "Plasmopara viticola", "experiment": "In vivo greenhouse test on downy mildew of grapevine, preventive treatment at 4 days (Example 5)", "settings": "grapevine Chardonnay, FIG. 2", "method": "In Vivo Greenhouse Test of the Combination of Compound (I) with Compound (IIA), Propamocarb, on Plasmopara viticola (Downy Mildew of Grapevine) by Preventive Treatment at 4 Days:\nA soluble concentrate containing 722 g/l of propamocarb and a 70% dispersible granule of compound (I) are used.\nDilute suspensions corresponding to a spraying volume of 500 l of spraying liquid per ha are prepared from these compositions by dilution with water.\nThese 2 liquids are mixed together so as to obtain a ratio: compound (I)/propamocarb, equal to: 0.015−0.125−0.5.\nCuttings of grapevine (Vitis vinifera), Chardonnay variety, are cultivated in pots. When these plants are 2 months old, they are treated by spraying with the above liquids, taken individually or as a mixture.\nAfter 4 days, each plant is contaminated by spraying with an aqueous suspension of spores of Plasmopara viticola obtained from sporulated leaves contaminated 7 days beforehand. […]\nThe results are read 7 days after the contamination, by comparison with the control plants, that is to say untreated but contaminated plants.\nThe surface area of leaves showing a whitish appearance on their underside, corresponding to attack by the fungus, is assessed visually and the degree of attack is obtained by dividing by the total foliar surface.\nThe efficacy is then calculated using the Abbott formula and using the result on the control plant. […]"}, "Phytophthora infestans [6]": {"test_system": "Phytophthora infestans", "format": "in vivo", "settings": "potato Bintje, FIG. 1"}, "Plasmopara viticola [7]": {"test_system": "Plasmopara viticola", "experiment": "In vivo greenhouse test of ternary composition against downy mildew of grapevine, treatment 24 h after contamination (Example 12)", "settings": "grapevine Chardonnay, compound (I) alone, FIG. 9"}, "[8]": {"settings": "contamination 4 days after treatment"}}, "note": "Like-named read-outs stand apart in the source and are kept apart here.", "data": [{"molecule": "CSC(=O)c1cccc2nnsc12", "note": "[CGA 245704, S-methyl ester of 1,2,3-benzothiadiazole-7-carbothioic acid]", "values": [{"measurement": "efficacy when applied alone", "setting": "Phytophthora infestans [1]; under the test conditions", "value": "no efficacy"}]}, {"molecule": "CSC1=N[C@@](C)(c2ccccc2)C(=O)N1Nc1ccccc1", "note": "[compound (I), (4S)-4-methyl-2-methylthio-4-phenyl-1-phenyl-amino-2-imidazolin-5-one]", "values": [{"measurement": "efficacy when applied alone", "setting": "Uncinula necator [2]; grapevine, under the test conditions, 22 days", "value": "no efficacy"}, {"measurement": "dose alone which needs to be applied to obtain 70% destruction of the parasite", "setting": "Alternaria brassicae", "value": 167, "unit": "mg/L"}, {"measurement": "dose alone which needs to be applied to obtain 90% destruction of the parasite", "setting": "Phytophthora infestans [3]", "value": 8.7, "unit": "mg/L"}, {"measurement": "dose alone which needs to be applied to destroy 70% of the parasite", "setting": "Phytophthora infestans [1]; [8]", "value": 177, "unit": "mg/L"}, {"measurement": "efficacy when applied alone", "setting": "Uncinula necator [4]; grapevine, under the test conditions", "value": "no efficacy"}, {"measurement": "efficacy when applied alone", "setting": "Botrytis cinerea; grapevine leaves, under the test conditions", "value": "no efficacy"}, {"measurement": "dose alone which needs to be applied to obtain 90% efficacy", "setting": "Plasmopara viticola [5]; preventive 4 days", "value": 8.2, "unit": "mg/L"}, {"measurement": "dose alone which needs to be applied to destroy 70% of the parasite", "setting": "Phytophthora infestans [6]; [8]", "value": 36, "unit": "mg/L"}, {"measurement": "dose alone which needs to be applied to obtain 70% destruction of the parasite", "setting": "Plasmopara viticola [7]", "value": 36, "unit": "mg/L"}]}, {"molecule": "Cc1cc(C2CC2)nc(Nc2ccccc2)n1", "note": "[cyprodinil, 2-phenylamino-4-cyclopropyl-6-methyl-pyrimidine]", "values": [{"measurement": "dose alone which needs to be applied to obtain 70% destruction of the parasite", "setting": "Alternaria brassicae", "value": 178, "unit": "mg/L"}, {"measurement": "dose alone which needs to be applied to destroy 90% of the parasite", "setting": "Botrytis cinerea; grapevine Chardonnay cut leaves, contamination 24 hours after treatment", "value": 73, "unit": "mg/L"}]}, {"molecule": "CCCOC(=O)NCCCN(C)C", "note": "[propamocarb, propyl 3-(dimethylamino)propyl carbamate]", "values": [{"measurement": "dose alone which needs to be applied to obtain 90% destruction of the parasite", "setting": "Phytophthora infestans [3]", "value": 553, "unit": "mg/L"}, {"measurement": "efficacy when applied alone", "setting": "Plasmopara viticola [5]; under the test conditions", "value": "no efficacy"}]}, {"molecule": "O=C([O-])c1ccccc1O.[Na+]", "note": "[sodium salt of salicylic acid]", "values": [{"measurement": "efficacy when applied alone", "setting": "Phytophthora infestans [6]; under the test conditions", "value": "no efficacy"}]}, {"molecule": "CCCN(CC)CC1COC2(CCC(C(C)(C)C)CC2)O1", "note": "(centres unmarked) [spiroxamine, 8-t-butyl-2-(N-ethyl-N-n-propylamino)methyl-1,4-dioxaspiro[4.5]decane]", "values": [{"measurement": "dose alone which needs to be applied to destroy 70% of the parasite", "setting": "Uncinula necator [2]; grapevine Chardonnay, read 22 days after contamination", "value": 61, "unit": "g/ha"}, {"measurement": "dose alone which needs to be applied to destroy 70% of the parasite", "setting": "Uncinula necator [4]; grapevine Chardonnay, read 15 days after contamination", "value": 6.6, "unit": "g/ha"}]}]}
